Assays:
[1] = test system: Rb phosphorylated on serine 780 in CCNE1 amplified COV318 cells; assay: CDK2 pRb (S780) HTRF cellular assay; type: cell-based; conditions: Homo sapiens, overnight treatment, read-out: IC50 in p-RB S780 HTRF cellular assay
Experimental: CDK2 pRb (5780) HTRF cellular assay enables the quantitative detection of Rb phosphorylated on […] in CCNE1 amplified COV318 cells. The assay comprised two antibodies: Europium cryptate labeled anti-Phospho-Rb […] antibody (donor) and d2 labeled anti-Rb antibody (acceptor). In brief, COV318 cells were seeded into the wells of 96-well plate at a density of 25,000 per well with 9-point, 3-fold serial diluted compounds and cultured overnight at 37 degree with 5% CO2. The final concentrations of compounds start from 3 μM. […] After 2h of incubation at room temperature, HTRF signals were measured on the PHERAstar microplate reader (BMG Labtech), using 340 nm as excitation wavelength, a 620 nm filter for the Europium donor fluorescence, and a 665-nm filter for the acceptor fluorescence detection. HTRF signals were calculated as the HTRF ratio (ratio of fluorescence measured at 665 nm and 620 nm)×10000.

[2] = test system: Rb phosphorylation at S780 in CCNE1-amplified cell lines (OVCAR3 and COV318); assay: Western blot of Rb phosphorylation at S780, CCNE1-amplified cell lines; type: cell-based, human; conditions: various doses, 1 or 15 hours
Experimental: (§1) The effect of CDK4/6-inhibition on Rb phosphorylation at 5780 in CCNE1-amplified versus CCNE1-non-amplified cell lines was evaluated. […] One or 15 hours after treatment, the cells were harvested and total protein was extracted and analyzed by western blot (FIG. 8).
(§2) Whole cell extracts were prepared using RIPA buffer (Thermo Scientific, 89900) with a Halt Protease and Phosphatase Inhibitor Cocktail (Thermo Scientific, 78440). Protein concentration was quantified with a BCA Protein Assay Kit (Thermo Scientific, 23225) and 40 μg of protein lysates were loaded for SDS-PAGE using precast gradient gels (Bio-Rad, Hercules, No. 456-1094). Samples were diluted in 5× Laemmli buffer (300 mM Tris-HCl pH 6.8, 10% SDS (w/v), 5% 2-mercaptoethanol, 25% glycerol (v/v), 0.1% bromophenol blue w/v) and boiled for 5 minutes. […] of proteins were separated by 8-15% SDS-PAGE and transferred onto polyvinylidene fluoride (PVDF) membranes. Unspecific binding sites on the PVDF membranes were blocked with 5% non-fat milk in TBST (20 mM Tris-HCl, pH 7.6, 137 mM NaCl, 1% Tween-20). […] Images were captured by Luminescence/Fluorescence Imaging System Odyssey CLx Imager (LI-COR).

[3] = test system: CCNE1-non-amplified cell lines (COV504, OV56, Igrov1); assay: Cell cycle analysis by FACS upon CDK4/6 inhibition, CCNE1-non-amplified cell lines; type: cell-based, human
Experimental: (§3) The effect of CDK4/6-inhibition in CCNE1-amplified versus CCNE1-non-amplified cell lines was evaluated.
(§4) A similar experiment was performed in a larger set of CCNE1-amplified cell lines (COV318 and OVCAR3) and CCNE1-non-amplified cell lines (COV504, OV56, and Igrov1) (FIG. 6).
(§5) The complete growth medium was supplemented with 10% FBS, 0.1 mM non-essential amino acids, 2 mM L-glutamine, 100 units/mL penicillin G and 100 μg/mL streptomycin in 37° C. humidified incubator and an atmosphere of 5% CO2 in air. Fu-OV1 line was purchased from Leibniz-Institute DSMZ—German Collection of Microorganisms and Cell Cultures; MKN1 was purchased from Japanese Cancer Research Resources Bank; and the rest of cell lines were purchased from American Type Culture Collection.
(§6) Bulk DNA was stained with DAPI. Compound-treated and DMSO treated control cells were acquired with CytoFlex (Beckman Coulter) and were analyzed using the FlowJo software.

[4] = test system: Rb phosphorylation at S780 in CCNE1-non-amplified cell lines (COV504 and OV56); assay: Western blot of Rb phosphorylation at S780, CCNE1-non-amplified cell lines; type: cell-based, human; conditions: various doses, 1 or 15 hours
Experimental: as §1, §2

[5] = test system: CCNE1-amplified cell lines (COV318, OVCAR3); assay: Cell cycle analysis by FACS upon CDK4/6 inhibition, CCNE1-amplified cell lines; type: cell-based, human
Experimental: as §3, §4, §5, §6

CC(=O)c1c(C)c2cnc(Nc3ccc(N4CCNCC4)cn3)nc2n(C2CCCC2)c1=O [Palbociclib]
IC50 [1]: > 3000 nM
Rb phosphorylation at S780 (western blot) [2]: not in CCNE1-amplified cell lines
Inhibition of proliferation (cell cycle analysis by FACS) ([3]; CCNE1-non-amplified cells (COV504), increasing concentrations, 16 hours): dose-dependent inhibition of the proliferation
Percentage of cells at the S phase as compared to DMSO ([3]; COV504, OV56, Igrov1, 16 hours after treatment): decreased in CCNE1-non-amplified cell lines in a dose-dependent fashion
Rb phosphorylation at S780 (western blot) [4]: blocked Rb phosphorylation
Inhibition of proliferation (cell cycle analysis by FACS) ([5]; CCNE1-amplified cells (OVCAR3), increasing concentrations, 16 hours): not in CCNE1-amplified cells
Percentage of cells at the S phase as compared to DMSO ([5]; COV318 and OVCAR3, 16 hours after treatment): not significantly different
